The source of these data is patent publication US6426222B1, “Method for inducing osteoblast differentiation of human extramedullary adipose tissue cells” (Bio Holdings International Limited, priority 1997, dated 2002).

For test [1], the system named is human extramedullary adipose tissue cells. The test can be described thus: Alkaline phosphatase activity of treated cultures (para-nitrophenol phosphate substrate). It is filed as cell-based. To be noted: dexamethasone 10^-7 M.
Protocol: Adipose tissue biopsies were taken during plastic surgery of the abdomen on healthy patients, of ages of from 25 to 50.
The tissues taken were sliced thinly into small fragments and digested for 90 minutes with collagenase (2 mg/ml) in a Krebs Ringer buffer at 37° C. Filtering was performed on a screen having a pore size of 100 μm, the filtrate was recovered, and centrifuged at 1000 revolutions per minute (rpm) for 5 min. The supernatant was removed and the pellet was washed several times in Krebs Ringer buffer. The washing and centrifuging steps were repeated several times and on each occasion the supernatant containing mature adipocytes was removed. The resulting cells were suspended in DME/F12 (Sigma Chemical Co., St. Louis, Mo. USA; reference D-6905) culture medium containing 10% fetal calf serum, 100 μg/ml streptomycin, and 100 U/ml penicillin.
Polystyrene culture dishes (“tissue culture flasks” sold by Becton-Dickinson under the references 3013, 3028, and 3084) were inoculated with the resulting cell suspension and incubation was performed at 37° C. under an atmosphere of moist air with 5% additional CO2. […]
The quantity of para-nitrophenol formed upon hydrolysis of the substrate was determined by measuring the absorbance at 410 nm, which was converted into nanomoles of enzyme using a calibration curve established on the basis of known concentrations of para-nitrophenol.
The target in test [2] is placenta type alkaline phosphatase (Homo sapiens, UniProt P05187). Particulars: read-out: levamisole concentration for 50% inhibition of activity, placenta type alkaline phosphatase; cited from earlier work.
placenta type alkaline phosphatase, sequence (P05187 23-506 limits assumed): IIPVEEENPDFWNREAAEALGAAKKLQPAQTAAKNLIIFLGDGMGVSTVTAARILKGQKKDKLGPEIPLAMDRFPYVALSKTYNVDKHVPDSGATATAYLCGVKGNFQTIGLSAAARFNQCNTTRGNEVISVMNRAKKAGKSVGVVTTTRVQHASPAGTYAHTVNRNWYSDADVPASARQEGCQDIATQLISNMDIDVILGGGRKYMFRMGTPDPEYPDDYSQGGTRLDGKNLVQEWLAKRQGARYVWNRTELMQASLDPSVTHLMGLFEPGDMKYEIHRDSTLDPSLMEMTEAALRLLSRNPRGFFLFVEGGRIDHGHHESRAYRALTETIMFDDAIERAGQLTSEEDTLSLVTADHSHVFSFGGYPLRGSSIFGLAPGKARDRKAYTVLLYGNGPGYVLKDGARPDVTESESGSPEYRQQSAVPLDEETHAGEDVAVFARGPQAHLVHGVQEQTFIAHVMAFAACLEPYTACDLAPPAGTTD
Test [3] deals with intestine type alkaline phosphatase (Homo sapiens, UniProt P09923). Particulars: read-out: levamisole concentration for 50% inhibition of activity, intestine type alkaline phosphatase; cited from earlier work.
intestine type alkaline phosphatase, sequence (P09923 20-503 limits assumed): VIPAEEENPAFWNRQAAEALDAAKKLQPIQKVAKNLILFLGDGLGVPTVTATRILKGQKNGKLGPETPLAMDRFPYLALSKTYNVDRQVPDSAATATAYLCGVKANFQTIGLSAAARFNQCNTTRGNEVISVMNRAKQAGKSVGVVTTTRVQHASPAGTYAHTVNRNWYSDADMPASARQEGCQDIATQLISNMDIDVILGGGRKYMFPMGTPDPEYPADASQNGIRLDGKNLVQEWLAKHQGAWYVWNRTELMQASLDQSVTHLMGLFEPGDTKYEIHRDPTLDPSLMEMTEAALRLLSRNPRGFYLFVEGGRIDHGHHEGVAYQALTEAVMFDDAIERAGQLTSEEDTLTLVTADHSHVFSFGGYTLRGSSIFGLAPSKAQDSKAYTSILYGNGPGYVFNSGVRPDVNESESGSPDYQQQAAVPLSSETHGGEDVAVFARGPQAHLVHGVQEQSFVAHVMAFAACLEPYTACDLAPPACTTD

Molecules are shown by their SMILES. Bounds are passed on as bounds.

Regarding `C[C@@H]1C[C@H]2[C@@H]3CCC4=CC(=O)C=C[C@]4(C)[C@@]3(F)[C@@H](O)C[C@]2(C)[C@@]1(O)C(=O)CO` [dexamethasone], in test [1], the “alkaline phosphatase activity, observed in nearly all cases” value is on record as “not less than 200 nanomoles of para-nitrophenol/30 min/well” and the “alkaline phosphatase activity, sometimes as high as” value was no more than 700 nanomoles/30 min/well.
Turning to `c1ccc([C@H]2CN3CCSC3=N2)cc1` [levamisole], the IC50 in test [2] is roughly 1 mM; in test [3] it was roughly 3 mM.
